System: patients after acute myocardial infarction
Test: TCM symptom score, total and single (chest pain, chest tightness, short breath, fatigue, palpitation, spontaneous perspiration, pale complexion), same clinical trial
Assay type: in vivo, human
Set-up: total score of TCM symptom, Mean / total score of TCM symptom, Min / total score of TCM symptom, Max / total score of TCM symptom, Md / change of total score of TCM symptom, Mean / change of total score of TCM symptom, Max / change of total score of TCM symptom, Md: scale not given here
Conditions: FAS
Excerpt: 3508 patients who were in accordance with the diagnostic standards of AMI for 28 days to 2 years and differentiated as Qi deficiency and blood stagnation syndrome by TCM were studied. 0.5 g Chinese medicine composition prepared by the method of EXAMPLE 1 (Coded as QSYQ) was administrated half an hour after meal, 3 times per day.
They included the overall survival time, angina pectoris score, TCM symptom score and life quality score, where angina pectoris score, TCM symptom score and life quality score were evaluated at randomization, in 1st, 3rd, 6th, 9th, 12th month after treatment and 18th month after follow-up.
The analysis method referred to the angina pectoris score.

[1] = 1 month after treatment-baseline
[2] = 3 month after treatment-baseline

Structure (SMILES): CC(=O)Oc1ccccc1C(=O)O [Control group, aspirine]
- total score of TCM symptom, Max (1 month after treatment): 34.00
- total score of TCM symptom, Md (1 month after treatment): 11.00
- total score of TCM symptom, Mean (1 month after treatment): 11.84
- total score of TCM symptom, Min (1 month after treatment): 0.00
- change of fatigue 0, % of patients [1]: (72.40%)
- change of fatigue 0, number of patients [1]: 1238
- change of fatigue 1, % of patients [1]: (0.06%)
- change of fatigue 1, number of patients [1]: 1
- change of fatigue 2, % of patients [1]: (17.72%)
- change of fatigue 2, number of patients [1]: 303
- change of fatigue 4, % of patients [1]: (2.63%)
- change of fatigue 4, number of patients [1]: 45
- change of fatigue 6, % of patients [1]: (0.76%)
- change of fatigue 6, number of patients [1]: 13
- change of fatigue −2, % of patients [1]: (5.73%)
- change of fatigue −2, number of patients [1]: 98
- change of fatigue −4, % of patients [1]: (0.64%)
- change of fatigue −4, number of patients [1]: 11
- change of fatigue −6, % of patients [1]: (0.06%)
- change of fatigue −6, number of patients [1]: 1
- change of pale complexion 0, number of patients [1]: 1477
- change of pale complexion 0, percent of patients [1]: (86.48%)
- change of pale complexion 1, number of patients [1]: 166
- change of pale complexion 1, percent of patients [1]: (9.72%)
- change of pale complexion −1, number of patients [1]: 65
- change of pale complexion −1, percent of patients [1]: (3.81%)
- change of palpitation 0, number of patients [1]: 1242
- change of palpitation 0, percent of patients [1]: (72.63%)
- change of palpitation 1, number of patients [1]: 334
- change of palpitation 1, percent of patients [1]: (19.53%)
- change of palpitation 2, number of patients [1]: 25
- change of palpitation 2, percent of patients [1]: (1.46%)
- change of palpitation 3, number of patients [1]: 5
- change of palpitation 3, percent of patients [1]: (0.29%)
- change of palpitation −1, number of patients [1]: 103
- change of palpitation −1, percent of patients [1]: (6.02%)
- change of palpitation −2, number of patients [1]: 1
- change of palpitation −2, percent of patients [1]: (0.06%)
- change of palpitation −3, number of patients [1]: 0
- change of palpitation −3, percent of patients [1]: (0.00%)
- change of short breath 0, % of patients [1]: (77.37%)
- change of short breath 0, number of patients [1]: 1323
- change of short breath 2, % of patients [1]: (14.74%)
- change of short breath 2, number of patients [1]: 252
- change of short breath 4, % of patients [1]: (1.75%)
- change of short breath 4, number of patients [1]: 30
- change of short breath 6, % of patients [1]: (0.41%)
- change of short breath 6, number of patients [1]: 7
- change of short breath −2, % of patients [1]: (5.26%)
- change of short breath −2, number of patients [1]: 90
- change of short breath −4, % of patients [1]: (0.47%)
- change of short breath −4, number of patients [1]: 8
- change of short breath −6, % of patients [1]: (0.00%)
- change of short breath −6, number of patients [1]: 0
- change of spontaneous perspiration 0, number of patients [1]: 1249
- change of spontaneous perspiration 0, percent of patients [1]: (73.08%)
- change of spontaneous perspiration 1, number of patients [1]: 279
- change of spontaneous perspiration 1, percent of patients [1]: (16.33%)
- change of spontaneous perspiration 2, number of patients [1]: 51
- change of spontaneous perspiration 2, percent of patients [1]: (2.98%)
- change of spontaneous perspiration 3, number of patients [1]: 16
- change of spontaneous perspiration 3, percent of patients [1]: (0.94%)
- change of spontaneous perspiration −1, number of patients [1]: 94
- change of spontaneous perspiration −1, percent of patients [1]: (5.50%)
- change of spontaneous perspiration −2, number of patients [1]: 17
- change of spontaneous perspiration −2, percent of patients [1]: (0.99%)
- change of spontaneous perspiration −3, number of patients [1]: 3
- change of spontaneous perspiration −3, percent of patients [1]: (0.18%)
- change of total score of TCM symptom, Max [1]: 24.00
- change of total score of TCM symptom, Md [1]: 0.00
- change of total score of TCM symptom, Mean [1]: −1.96
- change of total score of TCM symptom, Min [1]: −33.00
- change of total score of TCM symptom, Max [2]: 19.00
- change of total score of TCM symptom, Md [2]: −2.00
- change of total score of TCM symptom, Mean [2]: −2.91
- change of total score of TCM symptom, Min [2]: −33.00
- distribution of total score of TCM symptom: Medium, number of patients (3 months after treatment): 546
- distribution of total score of TCM symptom: Medium, percentage of patients (3 months after treatment): (33.58%)
- distribution of total score of TCM symptom: Mild, number of patients (3 months after treatment): 1066
- distribution of total score of TCM symptom: Mild, percentage of patients (3 months after treatment): (65.56%)
- distribution of total score of TCM symptom: Severe, number of patients (3 months after treatment): 14
- distribution of total score of TCM symptom: Severe, percentage of patients (3 months after treatment): (0.86%)
- fatigue score 0, % of patients (3 months after treatment): (27.96%)
- fatigue score 0, number of patients (3 months after treatment): 480
- fatigue score 2, % of patients (3 months after treatment): (59.76%)
- fatigue score 2, number of patients (3 months after treatment): 1026
- fatigue score 4, % of patients (3 months after treatment): (11.47%)
- fatigue score 4, number of patients (3 months after treatment): 197
- fatigue score 6, % of patients (3 months after treatment): (0.82%)
- fatigue score 6, number of patients (3 months after treatment): 14
- pale complexion score 0, number of patients (3 months after treatment): 809
- pale complexion score 0, percent of patients (3 months after treatment): (47.12%)
- pale complexion score 1, number of patients (3 months after treatment): 677
- pale complexion score 1, percent of patients (3 months after treatment): (39.43%)
- pale complexion score 2, number of patients (3 months after treatment): 210
- pale complexion score 2, percent of patients (3 months after treatment): (12.23%)
- pale complexion score 3, number of patients (3 months after treatment): 21
- pale complexion score 3, percent of patients (3 months after treatment): (1.22%)
- palpitation score 0, number of patients (3 months after treatment): 480
- palpitation score 0, percent of patients (3 months after treatment): (27.96%)
- palpitation score 2, number of patients (3 months after treatment): 894
- palpitation score 2, percent of patients (3 months after treatment): (52.07%)
- palpitation score 4, number of patients (3 months after treatment): 310
- palpitation score 4, percent of patients (3 months after treatment): (18.05%)
- palpitation score 6, number of patients (3 months after treatment): 33
- palpitation score 6, percent of patients (3 months after treatment): (1.92%)
- short breath score 0, % of patients (3 months after treatment): (21.78%)
- short breath score 0, number of patients (3 months after treatment): 374
- short breath score 3, % of patients (3 months after treatment): (58.94%)
- short breath score 3, number of patients (3 months after treatment): 1012
- short breath score 6, % of patients (3 months after treatment): (18.52%)
- short breath score 6, number of patients (3 months after treatment): 318
- short breath score 9, % of patients (3 months after treatment): (0.76%)
- short breath score 9, number of patients (3 months after treatment): 13
- spontaneous perspiration score 0, number of patients (3 months after treatment): 667
- spontaneous perspiration score 0, percent of patients (3 months after treatment): (38.85%)
- spontaneous perspiration score 1, number of patients (3 months after treatment): 846
- spontaneous perspiration score 1, percent of patients (3 months after treatment): (49.27%)
- spontaneous perspiration score 2, number of patients (3 months after treatment): 190
- spontaneous perspiration score 2, percent of patients (3 months after treatment): (11.07%)
- spontaneous perspiration score 3, number of patients (3 months after treatment): 14
- spontaneous perspiration score 3, percent of patients (3 months after treatment): (0.82%)
- total score of TCM symptom, Max (3 months after treatment): 33.00

— patent US9211310B2, “Use of a Chinese medicine composition in preparing medicaments for treating secondary prevention of myocardial infarction” (TASLY PHARMACEUTICAL GROUP CO., LTD, priority 2010, dated 2015)
